The results in this text go back to article PMC6934184, “Selective DNA-PKcs inhibition extends the therapeutic index of localized radiotherapy and chemotherapy” (The Journal of Clinical Investigation, 2019).

The target in this assay is T1, RPS6KA3 (RSK2) (Homo sapiens, UniProt P51812).
T1 construct: purchased Thermo Fisher Scientific (Life Technologies) SelectScreen
Kind of assay: SelectScreen Z'LYTE. Type of assay: biochemical. Put shortly: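 SelectScreen broad panel; activity (Z'LYTE, Adapta) plus binding formats. ATP: Km app for CSF1R Z'LYTE; 10 for CAMK1 Adapta. Readout = % per kinase.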

T1 sequence (P51812 whole entry): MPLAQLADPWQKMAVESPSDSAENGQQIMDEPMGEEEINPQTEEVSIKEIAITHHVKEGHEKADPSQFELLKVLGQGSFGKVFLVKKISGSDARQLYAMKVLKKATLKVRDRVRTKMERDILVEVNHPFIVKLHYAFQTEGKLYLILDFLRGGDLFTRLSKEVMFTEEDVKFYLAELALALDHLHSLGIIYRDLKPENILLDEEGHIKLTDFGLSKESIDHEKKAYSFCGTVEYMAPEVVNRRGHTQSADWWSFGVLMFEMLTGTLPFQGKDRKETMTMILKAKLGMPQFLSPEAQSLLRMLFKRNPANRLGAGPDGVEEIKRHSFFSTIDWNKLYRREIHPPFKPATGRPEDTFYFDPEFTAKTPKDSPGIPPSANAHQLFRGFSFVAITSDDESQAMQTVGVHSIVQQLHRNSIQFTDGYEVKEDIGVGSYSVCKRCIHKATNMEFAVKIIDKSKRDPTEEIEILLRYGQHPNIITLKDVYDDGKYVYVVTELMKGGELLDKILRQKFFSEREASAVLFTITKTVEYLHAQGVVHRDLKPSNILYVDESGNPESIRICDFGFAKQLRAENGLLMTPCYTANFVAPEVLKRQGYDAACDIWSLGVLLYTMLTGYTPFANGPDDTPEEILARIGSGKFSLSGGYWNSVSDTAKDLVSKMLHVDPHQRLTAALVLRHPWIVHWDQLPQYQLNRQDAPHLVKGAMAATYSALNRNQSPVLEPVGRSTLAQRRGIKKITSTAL

What is called inhibition is the percentage by which the read-out fell short of the control. The low end stands for a response near the control, the high end for a response far below the control. As to `CN(C(=O)CN1CCOCC1)c1ccc2sc3c(-c4cccc5c(=O)cc(N6CC7CCC(C6)O7)oc45)cccc3c2c1` [NU5455], the inhibition at 1 µM is 2.1%.
